Data on 1 molecule can be found in patent publication US10799522B2, “Compositions and methods relating to galectin detection” (Wayne State University, priority 2015, dated 2020).

Entries after “also recorded” stand apart in the source; their conditions may differ.

This data set can be described thus: dynamic PET/CT imaging, pharmacokinetics and biodistribution in a normal rat. The format is in vivo, Sprague-Dawley rats. Here is the method: Sprague-Dawley rats (males, ˜250 g) were anesthetized using inhalation of 2% isoflurane in oxygen, and their body temperature maintained at 37° C. by a heating pad with a feedback temperature control. […] Dynamic PET images were acquired in the list-mode and reconstructed using OSEM algorithm at multiple time frames post radiotracer administration (0-2, 2-4, 4-6, 6-8, 8-10, 10-20, 20-30, 30-40, 40-50, 50-60 min), followed by a whole body image that has been acquired using 3 consecutive bed positions, 5 min/bed position. Thereafter, while still fixed to the positioning bed, the rats were moved with the bed into the gantry of the INVEON SPECT/CT (Siemens) and CT images were acquired over the whole body area for attenuation correction of PET images and for production of PET/CT images. PET/CT fusion images were generated and analyzed using the AMIDE software version 1.0.4. […] The data was analyzed using GraphPad Prism version 6 (GraphPad Prism, Inc.) and pharmacokinetic parameters of clearance were calculated by fitting the resultant time-activity curves with exponential or bi-exponential functions.

[1] abbreviates: rats, i.v., bi-exponential clearance from the blood.
Where [2] appears, read: rats, i.v., mono-exponential kinetics.

On to `OCC1OC(SC2OC(CO)C(O)C(n3cc(-c4cccc([18F])c4)nn3)C2O)C(O)C(n2cc(-c3cccc(F)c3)nn2)C1O` [[^18F]FPTDG, 3-(3-[^18F]fluorophenyltriazolyl)-3-deoxy-3′-(3-fluorophenyltriazolyl)-3′-deoxy-1-thio-β-D-digalactopyranoside], for which the defluorination result ([^18F]-fluoride radioactivity accumulation in the bone) is on record as “Minimal, but detectable”. In addition, the “radioactivity levels in all major organs and tissues, including the liver and gall bladder” value (after 75 min post intravenous administration) is given as “very low”. In addition, the “primary radiation dose-limiting organs” value (based on dynamic PET/CT imaging results) was “liver and gall bladder; also recorded: liver and gallbladder”. Besides, where the note is “radiotracer doses”, the pharmacologic toxicity entry is on record as “No pharmacologic toxicity can be anticipated or actually observed; also recorded: No acute pharmacologic toxicity at radiotracer doses has been observed”. Besides, under “rats, i.v.”, the “accumulation or retention of radioactivity in the lungs, muscles, and other organs and tissues” value is “extremely low; also recorded: No substantial uptake or retention”; the “crossing of the blood-brain barrier (radioactivity in the brain)” value was “does not cross the blood-brain barrier (BBB)”; the route of excretion result is reported as “predominantly via the hepatobiliary route of excretion; also recorded: primarily excreted via the hepatobiliary route”. Moreover, under setting [1], the “blood fast clearance half-time” value is 0.5 min and the “blood slow clearance half-time” value is 7.36 min. Under setting [2], this molecule had a kidney clearance half-time of 68 min and a liver clearance half-time of 53 min. Also, the renal clearance entry (rats, i.v., radioactivity in the bladder) was “insignificant”. Further, the magnitude of catabolism entry (rats, bone accumulation at 60-75 min post injection) was “negligible”.
